Data as given in US20250163057A1, “DCN-1 MODULATING COMPOUNDS AND METHODS OF USE THEREOF” (Cellarity, Inc., priority 2023, published 2025).
Read-outs that look alike come from different tables or passages of the source.

Experiments:
[1] = target: DCN1 (DCUND1) protein PONY domain (Homo sapiens (Human), UniProt Q96GG9); experiment: TR-FRET assay, DCN1 binding with FAM-labeled probe
In short: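 Tb-DCN1 PONY domain (E. coli, biotin/streptavidin-Tb); FAM-labelled non-covalent inhibitor probe; TritonX buffer, 200 mM NaCl; 5 nM DCN1 + 20 nM probe or 0.31 nM DCN1 + 900 nM total probe; 0.1% DMSO; TR-FRET read 1, 5, 24 hrs.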

[2] = tested on: fetal hemoglobin gene HBG1; experiment: HBG1 Nanostring Assay in CD34+ HSPC erythroid differentiation culture; assay type: cell-based, human; settings: for EC50: Homo sapiens, 240 h, HBG1 induction, Day10 of erythroid differentiation; for Nanostring Ymax obs (%): relative to a control compound (C1)
Description: A Nanostring Assay was performed to evaluate the ability of the compounds to induce expression of the fetal hemoglobin gene HBG1 in cells. The data are shown as EC50, with stronger inducers having a lower EC50 value and higher YMax.
Forty eight hours later (day −2), the cells were passaged at a density of 200,000 cells/ml (100 ul/well in 96well culture plate) in complete expantion media. The cells were plated at 200,000 cells/ml on day 0 and day 3, 400,000 cells/ml on day 5 in phase 1 erythroid differentiation containing StemSpan with 2.5 U/mL of EPO (R&D systems, 287-TC-500), 0.5 mg/mL of Holo-Transferrin (Sigma, T0665-500MG), 1× Glutamine (Gluta-Max) (Gibco, 35050-061), 5 μL/mL Lipid Mixture (Sigma, L0288-100ML), 50 ng/mL SCF (R&D Systems, 255-SV-050), 10 ng/mL IL-3 (R&D Systems, 203-IL010) and 10 ng/mL Insulin (Sigma, I9278-5ML) all 200 μl per well in 96 well culture plate. Cells were then passaged at 500,000 cells/ml and 200 μl per well on day 7 in phase 2 Erythroid differentiation (Phase 1 erythroid differentiation removing IL-3) until collection day (Day10). The culture conditions were used for both control DMSO as well as experimental treatments.
For all cell pasagings, cells were centrifuged at 300 g for 8 minutes at room temperature and cell number were normalized by MANTIS and Integra VIAFLO 384. All the compounds are diluted in DMSO and added to complete media by Formulatrix FAST and mixed starting from day −2. Cells were counted by Luna cell counter with AOPI Staining Solution (Nexcelom Bioscience, CS2-0106-25 mL) on day-2. Cells were counted by BD FACSCelesta Flow Cytometer with CountBright™ Plus Absolute Counting Beads (Thermal Fisher Scientific, C36995) and SYTOX AADvanced™ Ready Flow™ Reagent (Invitrogen, R37173) for other passages. Cells were cultured at 37° C. and 5% CO2. DMSO concentration was kept at 0.1% to minimize any effects to the cells by the vehicle. […] Compound plates were kept at room temperature to protect from light to avoid multiple freeze and thaw cycle.
On the collection day (Day10), 100K cells were collected and stored at −80° C. For direct hybridization for Nanostring, 100K cell pellet was lyzed in 25 μL of RLT (QIAGEN, 79216) with 1×β-Mercaptoethanol (Gibco, 21985-023) and shaked at 300-500 RPM for 5 minutes at room temperature. Cell lysate was stored in −80° C. after lysis.
All hybridizations were done in a total volume of 15 μL (3 μL of RNA lysate added to master mix of 12 μL probe A/B, capture probe/reporter probes, proteinase K and attenuation oligos suspended in hybridization buffer). Samples were hybridized at 67° C. for 22 hr. Following hybridization, the tripartide complexes were purified, immobilized by nCounter Prep Station and imaged by Digital Analyzer (nCounter MAX/FLEX Analysis System), to generate digital counts of barcodes corresponding to each target in the multiplexed reaction. Labeled barcodes obtained from unamplified extracts were counted at 555 images or field of view (FOV). The barcode counts for each sample were recorded in Reporter Code Count (RCC) files that are imported into nSolver analysis software (provided with CodeSet by NS) for quality control evaluation.
The quality control (QC) metric included limit of detection QC by checking for wells with less than 100 total counts for positive controls.
Hybridization signals were normalized against the ERCC positive controls and CodeSet Content (housekeeping gene). Briefly, this involved first calculating a sample-specific scaling factor by calculating arithmetic mean of geomeans of all ERCC positive controls with counts more than zero in all samples. Then this arithmetic mean was divided by the geometric mean of each lane to generate a lane-specific normalization factor. All negative controls and target-specific signal values were then normalized by multiplying counts values with their sample-specific scaling factor. The acceptable range for scaling factors is 0.3-3.0. […]

[3] = tested on: Cullin-3 (CUL3) neddylation; experiment: AlphaLISA assay for Cullin-3 (CUL3) neddylation in TF 1 cells; assay type: cell-based; settings: Homo sapiens, TF-1, 3 h, 3 hours treatment
In short: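 TF 1 cells in unsupplemented IMDM treated with compound concentrations for 3 h, then lysed. CUL3 neddylation detected by AlphaLISA (biotinylated anti-NEDD8, anti-CUL3 acceptor beads overnight, streptavidin donor beads 1 h); normalized to vehicle (0%) and 1 μM DI-1548 (100%), IC50 from Hill fits.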

[4] = 24 hr after treatment with compound, read-out: TR FRET IC50 24 hr
[5] = TR FRET IC50 1 hr (nM), 1 hr after treatment with compound
[6] = read-out: TR FRET IC50 1 hr, 1 hr after treatment with compound

Chain of DCN1 (DCUND1) protein PONY domain (Q96GG9 60-248): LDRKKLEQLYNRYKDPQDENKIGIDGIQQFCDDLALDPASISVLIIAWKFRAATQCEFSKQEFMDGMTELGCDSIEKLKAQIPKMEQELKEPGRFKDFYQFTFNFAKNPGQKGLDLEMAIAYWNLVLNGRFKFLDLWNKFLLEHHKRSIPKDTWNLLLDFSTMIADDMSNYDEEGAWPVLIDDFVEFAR

SMILES | IC50 [1, 4] | IC50 [1, 5] | EC50 [2] | Nanostring Ymax obs (%) [2] | IC50 [3] | IC50 [1, 6]
CCN1C(=O)[C@@H](NC(=O)c2cccc(C(F)(F)F)c2)[C@@H](c2ccc(F)cc2)c2c(CNC/C=C/C(=O)OC)nn(-c3ccccc3)c21 (racemic) [Compound I-127, rac-methyl I-4-((((4R,5R)-7-ethyl-4-(4-fluorophenyl)-6-oxo-1-phenyl-5-(3-(trifluoromethyl)benzamido)-4,5,6,7-tetrahydro-1H-pyrazolo[3,4-b]pyridine-3-yl)methyl)amino)but-2-enoate] | ≤ 200 nM | ≤ 200 nM | 100 to 1000 nM | ++ (Nanostring Ymax greater than 50.0 and less than or equal to 100.0) | ≤ 100 nM | –
CCN1C(=O)[C@H](NC(=O)c2cccc(C(F)(F)F)c2)[C@@H](c2ccc(F)cc2)c2c([C@@H](C)NC#N)nn(-c3ccccc3)c21 [Compound I-637] | 200 to 1000 nM | 1000 to 3000 nM | – | + (Nanostring Ymax greater than or equal to 0.0 and less than or equal to 50.0) | > 1000 nM | –
C=C(CN1CC2CCC1CO2)C(=O)NCc1nn(-c2ccccc2)c2c1[C@H](c1ccc(F)cc1)[C@H](NC(=O)c1cccc(C(F)(F)F)c1)C(=O)N2CC (mixture of isomers) [Compound I-447] | ≤ 200 nM | – | ≤ 100 nM | +++ (Nanostring Ymax greater than 100.0) | ≤ 100 nM | ≤ 200 nM
C=C(CN1CC2CC1C2)C(=O)NCc1nn(-c2ccccc2)c2c1[C@H](c1ccc(F)cc1)[C@H](NC(=O)c1cccc(C(F)(F)F)c1)C(=O)N2CC (mixture of isomers) [Compound I-456] | ≤ 200 nM | – | – | ++ (Nanostring Ymax greater than 50.0 and less than or equal to 100.0) | ≤ 100 nM | ≤ 200 nM
CCN1C(=O)[C@@H](NC(=O)c2cccc(C(F)(F)F)c2)[C@@H](c2ccc(F)cc2)c2c([C@H](NC#N)C(F)F)nn(-c3ccccc3)c21 [Compound I-411] | ≤ 200 nM | – | 100 to 1000 nM | ++ (Nanostring Ymax greater than 50.0 and less than or equal to 100.0) | ≤ 100 nM | ≤ 200 nM
C=C(CN(C)C1COC1)C(=O)NCc1nn(-c2ccccc2)c2c1[C@@H](c1ccc(F)cc1)[C@H](NC(=O)c1cccc(C(F)(F)F)c1)C(=O)N2CC (racemic) [Compound I-491] | ≤ 200 nM | 200 to 1000 nM | ≤ 100 nM | ++ (Nanostring Ymax greater than 50.0 and less than or equal to 100.0) | ≤ 100 nM | –
CCN1C(=O)[C@@H](NC(=O)c2cccc(C(F)(F)F)c2)[C@@H](c2ccc(F)cc2)c2c(C(=O)N[C@@H](C)C#N)nn(-c3ccccc3)c21 [Compound I-254, (4S,5S)—N—((S)-1-cyanoethyl)-7-ethyl-4-(4-fluorophenyl)-6-oxo-1-phenyl-5-(3-(trifluoromethyl)benzamido)-4,5,6,7-tetrahydro-1H-pyrazolo[3,4-b]pyridine-3-carboxamide] | ≤ 200 nM | 200 to 1000 nM | > 1000 nM | ++ (Nanostring Ymax greater than 50.0 and less than or equal to 100.0) | ≤ 100 nM | –
C=C(CN1CCC1)C(=O)NCc1nn(-c2ccccc2)c2c1[C@H](c1ccc(F)cc1)[C@H](NC(=O)c1cccc(C(F)(F)F)c1)C(=O)N2CC [Compound I-2] | ≤ 200 nM | – | – | ++ (Nanostring Ymax greater than 50.0 and less than or equal to 100.0) | ≤ 100 nM | ≤ 200 nM
CCN1C(=O)[C@@H](NC(=O)c2cccc(C(F)(F)F)c2)[C@@H](c2ccc(F)cc2)c2c(CN(C#N)CCCCN(C)C)nn(-c3ccccc3)c21 [Compound I-248, ˜{N}-[(4˜{S},5˜{S})-3-[[cyano-[4-(dimethylamino)butyl]amino]methyl]-7-ethyl-4-(4-fluorophenyl)-6-oxo-1-phenyl-4,5-dihydropyrazolo[3,4-b]pyridine-5-yl]-3-(trifluoromethyl)benzamide] | ≤ 200 nM | 200 to 1000 nM | – | ++ (Nanostring Ymax greater than 50.0 and less than or equal to 100.0) | ≤ 100 nM | –
CCN1C(=O)[C@@H](NC(=O)c2cccc(C(F)(F)F)c2)[C@@H](c2ccc(F)cc2)c2c(CN(C#N)CCCN(C)C)nn(-c3ccccc3)c21 [Compound I-247, ˜{N}-[(4˜{S},5˜{S})-3-[[cyano-[3-(dimethylamino)propyl]amino]methyl]-7-ethyl-4-(4-fluorophenyl)-6-oxo-1-phenyl-4,5-dihydropyrazolo[3,4-b]pyridine-5-yl]-3-(trifluoromethyl)benzamide] | ≤ 200 nM | – | > 1000 nM | ++ (Nanostring Ymax greater than 50.0 and less than or equal to 100.0) | ≤ 100 nM | ≤ 200 nM
C=C(CN1CC2(CCC2O)C1)C(=O)NCc1nn(-c2ccccc2)c2c1[C@H](c1ccc(F)cc1)[C@H](NC(=O)c1cccc(C(F)(F)F)c1)C(=O)N2CC (mixture of isomers) [Compound I-458] | ≤ 200 nM | – | – | ++ (Nanostring Ymax greater than 50.0 and less than or equal to 100.0) | ≤ 100 nM | ≤ 200 nM
C=C(CN1CC(C)(O)C1)C(=O)NCc1nn(-c2ccccc2)c2c1[C@H](c1ccc(F)cc1)[C@H](NC(=O)c1cccc(C(F)(F)F)c1)C(=O)N2CC [Compound I-643] | ≤ 200 nM | – | ≤ 100 nM | ++ (Nanostring Ymax greater than 50.0 and less than or equal to 100.0) | ≤ 100 nM | ≤ 200 nM
C=C(CN1CCC12COC2)C(=O)NCc1nn(-c2ccccc2)c2c1[C@H](c1ccc(F)cc1)[C@H](NC(=O)c1cccc(C(F)(F)F)c1)C(=O)N2CC [Compound I-644] | ≤ 200 nM | – | > 1000 nM | ++ (Nanostring Ymax greater than 50.0 and less than or equal to 100.0) | ≤ 100 nM | ≤ 200 nM
CCN1C(=O)[C@@H](NC(=O)c2cccc(C(F)(F)F)c2)[C@@H](c2ccc(F)cc2)c2c(CN(C)C/C=C/C(=O)OC)nn(-c3ccccc3)c21 (racemic) [Compound I-250, rac-methyl I-4-((((4R,5R)-7-ethyl-4-(4-fluorophenyl)-6-oxo-1-phenyl-5-(3-(trifluoromethyl)benzamido)-4,5,6,7-tetrahydro-1H-pyrazolo[3,4-b]pyridine-3-yl)methyl)(methyl)amino)but-2-enoate] | ≤ 200 nM | 200 to 1000 nM | > 1000 nM | ++ (Nanostring Ymax greater than 50.0 and less than or equal to 100.0) | ≤ 100 nM | –
